Test [1] concerns the target T1, ALK2R206H (mutant ALK2, N-terminally tagged with GST) (Homo sapiens, UniProt Q04771, R206H).
T1 construct: purchased Carna Bioscience or ThermoFisher 09-148 or PV6232
T1 sequence (Q04771 21-509 R206H): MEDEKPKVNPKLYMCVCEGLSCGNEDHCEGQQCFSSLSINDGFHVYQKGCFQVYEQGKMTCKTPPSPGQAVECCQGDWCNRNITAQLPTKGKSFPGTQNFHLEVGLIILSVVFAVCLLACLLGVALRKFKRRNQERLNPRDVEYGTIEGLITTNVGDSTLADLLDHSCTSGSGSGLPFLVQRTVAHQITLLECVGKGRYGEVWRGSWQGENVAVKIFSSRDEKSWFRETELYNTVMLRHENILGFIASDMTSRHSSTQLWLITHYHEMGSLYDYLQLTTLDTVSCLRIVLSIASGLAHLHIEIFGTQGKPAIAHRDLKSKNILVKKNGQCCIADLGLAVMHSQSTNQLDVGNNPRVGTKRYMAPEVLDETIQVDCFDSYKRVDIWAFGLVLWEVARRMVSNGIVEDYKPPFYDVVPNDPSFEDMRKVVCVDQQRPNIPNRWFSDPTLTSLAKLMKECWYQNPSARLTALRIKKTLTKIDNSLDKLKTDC
Description: ALK binding assay (LANTHASCREEN TR-FRET competitive binding, displacement of Kinase Tracer 178). The following applies: read-out: Binding Assay (IC50 class). The essentials: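 GST-tagged ALK2 R206H (2-5 nM) mixed with Eu-anti-GST antibody (4-10 nM), Kinase Tracer 178 (50 nM, near its Kd) and compound titration (1% DMSO) in Kinase Buffer A, 30 min at room temperature. Tracer displacement read as TR-FRET ratio, normalized to controls; IC50 from 4-parameter fit.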
In general terms: Time-resolved FRET reads energy transfer from a long-lived donor to a nearby acceptor.

Test [2] has as its target T2, human ALK2 R206H (Homo sapiens, UniProt Q04771, R206H).
T2 construct: expressed in transfected cells; host or cells: HEK293 (ATCC CRL1573), lentivirus transduction, blasticidin selection
T2 sequence (Q04771 21-509 R206H): T1 sequence (Q04771 21-509 R206H)
Briefly: Cell-based ALK2-R206H cell activity assay (Smad1-Ser463/Ser465 phosphorylation by AlphaLISA in HEK293-ALK2-R206H cells). The following applies: phospho-Smad1 AlphaLISA, read-out: Cell Line (Cell Assay, IC50 class). The essentials:
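HEK293 stable line expressing human ALK2 R206H with C-terminal FLAG, plated overnight in serum-free medium. Cells were treated 2-3 h with compound over 10 3-fold doses, top 10 μM or 1 μM, in duplicate. Phospho-Smad1 Ser463/465 in lysate was read by AlphaLISA; IC50 was normalised to DMSO (0%) and 1 μM LDN193189 (100%).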
For orientation: Bead proximity is the source of the signal in Alpha formats.

The term IC50 denotes the concentration needed to halve the response being measured. In the case of `Cn1ncc(-c2cc3c(N4CCN(C(=O)OC5COC5)CC4)ccnc3[nH]2)c1C#N` [Compound 210], the concentration for half-maximal inhibition (IC50) was not above 10 nM in test [1] and 100 to 500 nM in test [2].
For `Cc1nc(-c2cc3c(N4CCN(C(=O)OCC(F)F)CC4)ccnc3[nH]2)cs1` [Compound 212], the values for the IC50 in test [1] and in test [2] were not above 10 nM and not above 100 nM, respectively.
In the case of `CCOC(=O)N1CCN(c2ccnc3[nH]c(-c4cnn(C(C)(C)C#N)c4)cc23)CC1` [Compound 213], the IC50 in test [1] is not above 10 nM; in test [2], 100 to 500 nM.
For `CCOC(=O)N1CCN(c2ccnc3[nH]c(-c4cnn(CC(C)C#N)c4)cc23)CC1` (stereo not shown) [Compound 214], the IC50 in test [1] is not above 10 nM; in test [2], 100 to 500 nM.
The matching figures for `Cn1ncc(-c2[nH]c3nccc(N4CCN(C(=O)OC5COC5)CC4)c3c2C#N)n1` [Compound 215]: not above 10 nM and 100 to 500 nM.
On the same counts, the results for `O=C(OC1COC1)N1CCN(c2ccnc3[nH]c(-c4cn5c(n4)CCC5)cc23)CC1` [Compound 218] are not above 10 nM and not above 100 nM.
With `O=C(OC1COC1)N1CCN(c2ccnc3[nH]c(-c4cnn(C5CC5)c4)cc23)CC1` [Compound 219], the IC50 was not above 10 nM in test [1] and not above 100 nM in test [2].
For the compound `O=C(OC1COC1)N1CCN(c2ccnc3[nH]c(-c4cn[nH]c4C4CC4)cc23)CC1` [Compound 220], the half-inhibitory concentration (IC50) in test [1] was 10 to 50 nM; in test [2], more than 500 nM.
For `CCOC(=O)N1CCN(c2ccnc3[nH]c(-c4ccc(OC(C)C)cc4)cc23)CC1` [Compound 221], the IC50 in test [1] was not above 10 nM; in test [2] it was 100 to 500 nM.
The matching figures for `Cn1cc(-c2cc3c(N4CCN(C(=O)[C@H]5CC[C@H](O)CC5)CC4)ccnc3[nH]2)cn1` [Compound 224]: not above 10 nM and more than 500 nM.
On the same counts, the results for `C[S+]([O-])c1ccc(-c2cc3c(N4CCN(C(=O)C5CC5)CC4)ccnc3[nH]2)cc1` (stereo not shown) [Compound 225] are not above 10 nM and 100 to 500 nM.
Consider `N#Cc1cc(-c2cc3c(N4CCN(C(=O)OC5COC5)CC4)ccnc3[nH]2)cs1` [Compound 227], for which the figures for the 50% inhibitory concentration (IC50) in test [1] and in test [2] were not above 10 nM and 100 to 500 nM, respectively.
Regarding `Cn1cc(-c2[nH]c3nccc(N4CCN(C(=O)[C@H]5C[C@@H]5C#N)CC4)c3c2Cl)cn1` [Compound 228], the IC50 in test [1] is not above 10 nM; in test [2], not above 100 nM.
Consider `CC(C)n1cnc(-c2cc3c(N4CCN(C(=O)OC5COC5)CC4)ccnc3[nH]2)c1` [Compound 231], for which the IC50 is not above 10 nM in test [1] and not above 100 nM in test [2].
As for `CO[C@H]1C[C@H](OC(=O)N2CCN(c3ccnc4[nH]c(-c5cnn(C)c5)cc34)CC2)C1` [Compound 232], the IC50 was not above 10 nM in test [1] and not above 100 nM in test [2].
On the same counts, the results for `COC1CC(OC(=O)N2CCN(c3ccnc4[nH]c(-c5cnn(C)c5)cc34)CC2)C1` (stereo not shown) [Compound 233] are not above 10 nM and 100 to 500 nM.
On to `Cn1cc(-c2cc3c(N4CCN(C(=O)OC5CCOCC5)CC4)ccnc3[nH]2)cn1` [Compound 234], for which the IC50 in test [1] was not above 10 nM; in test [2], 100 to 500 nM.
Consider `N#CC1(c2ccc(-c3cc4c(N5CCN(C(=O)C6CC6)CC5)ccnc4[nH]3)cc2)CC1` [Compound 241], for which the IC50 in test [1] was not above 10 nM; in test [2], not above 100 nM.
The matching figures for `Cc1nc(-c2cc3c(N4CCN(C(=O)OC5CCC5)CC4)ccnc3[nH]2)sc1C` [Compound 242]: not above 10 nM and not above 100 nM.
On to `Cc1nc(-c2cc3c(N4CCN(C(=O)O[C@H]5C[C@@H](F)C5)CC4)ccnc3[nH]2)cn1C` [Compound 243], for which the results for the IC50 in test [1] and in test [2] were not above 10 nM and not above 100 nM, respectively.
On the same counts, the results for `Cc1nc(-c2cc3c(N4CCN(C(=O)O[C@H]5C[C@H](F)C5)CC4)ccnc3[nH]2)cn1C` [Compound 244] are not above 10 nM and not above 100 nM.
The matching figures for `Cc1c(-c2cnn(C)c2)[nH]c2nccc(N3CCN(C(=O)O[C@H]4C[C@H](F)C4)CC3)c12` [Compound 245]: not above 10 nM and not above 100 nM.
The matching figures for `CCc1nc(-c2cc3c(N4CCN(C(=O)OC5COC5)CC4)ccnc3[nH]2)cs1` [Compound 248]: not above 10 nM and not above 100 nM.
With `CCc1cnc(-c2cc3c(N4CCN(C(=O)OC5COC5)CC4)ccnc3[nH]2)s1` [Compound 249], the IC50 in test [1] is not above 10 nM; in test [2], not above 100 nM.
The matching figures for `Cc1nc(-c2cc3c(N4CCN(C(=O)OC5COC5)CC4)ccnc3[nH]2)sc1C` [Compound 250]: not above 10 nM and not above 100 nM.
On the same counts, the results for `CCc1csc(-c2cc3c(N4CCN(C(=O)OC5COC5)CC4)ccnc3[nH]2)n1` [Compound 251] are not above 10 nM and 100 to 500 nM.
On the same counts, the results for `CC(C)(C#N)c1ccc(-c2cc3c(N4CCN(C(=O)C5CC5)CC4)ccnc3[nH]2)cc1` [Compound 252] are not above 10 nM and not above 100 nM.
Regarding `Cn1cc(-c2cc3c(N4CCN(C(=O)O[C@H]5COC[C@@H]5F)CC4)ccnc3[nH]2)cn1` [Compound 254], the IC50 in test [1] was not above 10 nM; in test [2] it was 100 to 500 nM.
The matching figures for `Cn1cc(-c2[nH]c3nccc(N4CCN(C(=O)OC5CCC5)CC4)c3c2Cl)cn1` [Compound 255]: not above 10 nM and not above 100 nM.
On the same counts, the results for `Cn1cc(-c2[nH]c3nccc(N4CCN(C(=O)OCC(F)F)CC4)c3c2C#N)cn1` [Compound 256] are not above 10 nM and not above 100 nM.
On to `Cn1cnc(-c2[nH]c3nccc(N4CCN(C(=O)OCC(F)F)CC4)c3c2C#N)c1` [Compound 257], for which the values for the IC50 in test [1] and in test [2] were not above 10 nM and not above 100 nM, respectively.
Turning to `CCOC(=O)N1CCN(c2ccnc3[nH]c(-c4cnn(C(F)F)c4)c(C#N)c23)CC1` [Compound 258], the IC50 in test [1] is not above 10 nM; in test [2] it was not above 100 nM.
`COc1nc(-c2cc3c(N4CCN(C(=O)OC5COC5)CC4)ccnc3[nH]2)cs1` [Compound 259]: the IC50 in test [1] is not above 10 nM; in test [2], 100 to 500 nM.
As to `Cc1nc(-c2cc3c(N4CCN(C(=O)O[C@H]5C[C@H](F)C5)CC4)ccnc3[nH]2)cs1` [Compound 260], the half-maximal inhibitory concentration (IC50) in test [1] is not above 10 nM; in test [2] it was not above 100 nM.
On the same counts, the results for `Cn1cc(-c2cc3c(N4CCN(C(=O)OC5CCC5(F)F)CC4)ccnc3[nH]2)cn1` (stereo not shown) [Compound 262] are not above 10 nM and not above 100 nM.
On the same counts, the results for `Cn1cc(-c2cc3c(N4CCN(C(=O)O[C@@H]5CCC5(F)F)CC4)ccnc3[nH]2)cn1` [Compound 263] are not above 10 nM and not above 100 nM.
With `Cn1cnc(-c2cc3c(N4CCN(C(=O)O[C@@H]5CCC5(F)F)CC4)ccnc3[nH]2)c1` [Compound 264], the IC50 is not above 10 nM in test [1] and not above 100 nM in test [2].
As for `Cn1cnc(-c2cc3c(N4CCN(C(=O)O[C@H]5CCC5(F)F)CC4)ccnc3[nH]2)c1` [Compound 265], the values for the IC50 in test [1] and in test [2] were not above 10 nM and not above 100 nM, respectively.
Turning to `Cn1cc(-c2cc3c(N4CCN(C(=O)OC5CC(F)(F)C5)CC4)ccnc3[nH]2)cn1` [Compound 266], the IC50 in test [1] was not above 10 nM; in test [2], not above 100 nM.
On the same counts, the results for `Cn1cc(-c2[nH]c3nccc(N4CCN(C(=O)O[C@H]5C[C@H](F)C5)CC4)c3c2F)cn1` [Compound 267] are not above 10 nM and not above 100 nM.
On the same counts, the results for `Cn1cc(-c2cc3c(N4CCN(C(=O)O[C@H]5CCC5(F)F)CC4)ccnc3[nH]2)cn1` [Compound 268] are not above 10 nM and not above 100 nM.
On the same counts, the results for `Cn1cnc(-c2cc3c(N4CCN(C(=O)OC5CC(F)(F)C5)CC4)ccnc3[nH]2)c1` [Compound 269] are not above 10 nM and not above 100 nM.
For `O=C(C1CC1)N1CCN(c2ccnc3[nH]c(-c4ccc(C5CCOC5)cc4)cc23)CC1` (stereo not shown) [Compound 270], the IC50 in test [1] was not above 10 nM; in test [2] it was not above 100 nM.
Turning to `CC1(c2ccc(-c3cc4c(N5CCN(C(=O)C6CC6)CC5)ccnc4[nH]3)cc2)COC1` [Compound 271], the IC50 in test [1] was not above 10 nM; in test [2] it was not above 100 nM.
As for `O=C(C1CC1)N1CCN(c2ccnc3[nH]c(-c4ccc(C5(O)CCC5)cc4)cc23)CC1` [Compound 272], the figures for the 50% inhibitory concentration (IC50) in test [1] and in test [2] were not above 10 nM and not above 100 nM, respectively.
As to `O=C(C1CC1)N1CCN(c2ccnc3[nH]c(-c4ccc(OC5CCC5)cc4)cc23)CC1` [Compound 273], the IC50 is not above 10 nM in test [1] and 100 to 500 nM in test [2].
On the same counts, the results for `Cn1cnc(-c2[nH]c3nccc(N4CCN(C(=O)OC5COC5)CC4)c3c2Cl)c1` [Compound 274] are not above 10 nM and not above 100 nM.

The values above are taken from patent US11236086B2, “Substituted pyrrolopyridines as inhibitors of activin receptor-like kinase” (BLUEPRINT MEDICINES CORPORATION, priority 2017, dated 2022).
